Results as given in US9409907B2, “Inhibitor compounds” (Cancer Research Technology Limited, priority 2012, dated 2016).

Target: full length MPS1 (Homo sapiens (Human), UniProt P33981)
Assay: Measurement of inhibition of MPS1 kinase (Caliper EZ reader mobility-shift enzyme assay)
Format: biochemical
Details: full length MPS1 12.5 nM or 3 nM, H236 peptide 5 μM, ATP 10 μM, 60 min at room temperature
Description: Measurement of Inhibition of MPS1 Kinase
The reaction was carried out for 60 min at room temperature and stopped by the addition of buffer (10 μl) containing 20 mM EDTA, 0.05% (v/v) Brij-35, in 0.1M HEPES-buffered saline (Free acid, Sigma, UK). The plate was read on a Caliper EZ reader II (Caliper Life Sciences).
The % inhibition of the compounds is calculated relative to the means of selected control wells.

full length MPS1, sequence (P33981 whole entry): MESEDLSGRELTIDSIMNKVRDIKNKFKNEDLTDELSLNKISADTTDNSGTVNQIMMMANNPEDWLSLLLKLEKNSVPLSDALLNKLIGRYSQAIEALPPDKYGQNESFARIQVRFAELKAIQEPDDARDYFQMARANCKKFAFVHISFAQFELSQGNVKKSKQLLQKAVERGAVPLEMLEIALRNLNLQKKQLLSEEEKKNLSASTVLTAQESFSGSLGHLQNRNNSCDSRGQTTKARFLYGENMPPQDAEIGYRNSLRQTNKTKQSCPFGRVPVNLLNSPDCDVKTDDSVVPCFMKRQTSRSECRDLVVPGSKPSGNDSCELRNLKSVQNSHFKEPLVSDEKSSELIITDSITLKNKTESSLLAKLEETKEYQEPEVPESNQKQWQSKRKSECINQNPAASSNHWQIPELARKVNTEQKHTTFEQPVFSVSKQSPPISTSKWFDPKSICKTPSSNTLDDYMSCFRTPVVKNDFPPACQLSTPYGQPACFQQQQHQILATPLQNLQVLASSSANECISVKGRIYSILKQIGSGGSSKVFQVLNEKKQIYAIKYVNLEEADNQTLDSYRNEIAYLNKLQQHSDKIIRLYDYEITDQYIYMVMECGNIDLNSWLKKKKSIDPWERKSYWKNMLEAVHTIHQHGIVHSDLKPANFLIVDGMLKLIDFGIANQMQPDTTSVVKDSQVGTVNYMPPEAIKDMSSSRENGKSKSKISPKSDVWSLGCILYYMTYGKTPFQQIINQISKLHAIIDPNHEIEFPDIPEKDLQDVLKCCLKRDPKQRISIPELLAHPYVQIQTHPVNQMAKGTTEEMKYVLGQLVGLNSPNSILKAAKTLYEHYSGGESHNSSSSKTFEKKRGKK

Row | IC50 [nM] | Compound
1 | 2 | COc1cc(-c2nnnn2C)ccc1Nc1ncc2ccnc(NCC(C)(C)OC)c2n1 [Example 163, N^8-(2-Methoxy-2-methylpropyl)-N^2-(2-methoxy-4-(1-methyl-1H-tetrazol-5-yl)phenyl)pyrido[3,4-d]pyrimidine-2,8-diamine]
2 | 29 | COc1cc(-c2cnn(C)c2)ccc1Nc1ncc2cc(C)nc(NCC(C)(C)C)c2n1 [Example 51, N^2-(2-methoxy-4-(1-methyl-1H-pyrazol-4-yl)phenyl)-6-methyl-N8-neopentylpyrido[3,4-d]pyrimidine-2,8-diamine]
3 | 5 | COc1cc(-c2cnn(C)c2)ccc1Nc1ncc2ccnc(NCC3(O)CC3)c2n1 [Example 112, 1-((2-(2-methoxy-4-(1-methyl-1H-pyrazol-4-yl)phenylamino)pyrido[3,4-d]pyrimidin-8-ylamino)methyl)cyclopropanol]
4 | 100 | COC1CN(C(=O)c2ccc(Nc3cc4c(-c5cnn(C)c5)cccc4cn3)c(Cl)c2)C1 [Example 22]
5 | 1 | COc1cc(-c2cnn(C)c2CO)ccc1Nc1ncc2ccnc(NCC3(C)CCOC3)c2n1 (centres unmarked) [Example 185]
6 | 95 | COc1cc(-c2c(C)noc2C)ccc1Nc1cc2c(-c3cnn(C)c3)cccc2cn1 [Example 18, N-(4-(3,5-dimethylisoxazol-4-yl)-2-methoxyphenyl)-5-(1-methyl-1H-pyrazol-4-yl)isoquinolin-3-amine]
7 | 20 | COc1cc(C(=O)N2CC(OC)C2)ccc1Nc1cc2c(-c3cnn(C4CCNCC4)c3)cccc2cn1 [Example 20, (3-Methoxy-4-((5-(1-(piperidin-4-yl)-1H-pyrazol-4-yl)isoquinolin-3-yl)amino)phenyl)(3-methoxyazetidin-1-yl)methanone]
8 | 51 | Cn1cc(-c2cccc3cnc(Nc4ccc(-c5cncn5C)cc4Cl)cc23)cn1 [Example 17, N-(2-chloro-4-(1-methyl-1H-imidazol-5-yl)phenyl)-5-(1-methyl-1H-pyrazol-4-yl)isoquinolin-3-amine]
9 | 4 | COc1cc(-c2cnn(C)c2)ccc1Nc1ncc2ccnc(N3CCCC(CO)C3)c2n1 (centres unmarked) [Example 134, (1-(2-(2-Methoxy-4-(1-methyl-1H-pyrazol-4-yl)phenylamino)pyrido[3,4-d]pyrimidin-8-yl)piperidin-3-yl)methanol]
10 | 56 | COc1cc(-c2cnn(C)c2)ccc1Nc1cc2c(NC3CCCCC3)nccc2cn1 [Example 105, N1-cyclohexyl-N7-(2-methoxy-4-(1-methyl-1H-pyrazol-4-yl)phenyl)-2,6-naphthyridine-1,7-diamine]
11 | 2 | COC(C)(C)CNc1nccc2cnc(Nc3ccc(-c4cnn(C)c4)cc3OC(F)F)nc12 [Example 204]
12 | 125 | COc1cc(C(=O)N2CC(OC)C2)ccc1Nc1cc2c(-c3cnn(C4CCN(C(=O)OC(C)(C)C)CC4)c3)cccc2cn1 [Example 3, tert-butyl 4-(4-(3-((2-methoxy-4-(3-methoxyazetidine-1-carbonyl)phenyl)-amino)isoquinolin-5-yl)-1H-pyrazol-1-yl)piperidine-1-carboxylate]
13 | 14 | COc1cc(-c2cnn(C)c2)ccc1Nc1ncc2ccnc(NCC(C)(F)F)c2n1 [Example 84, N8-(2,2-difluoropropyl)-N2-(2-methoxy-4-(1-methyl-1H-pyrazol-4-yl)phenyl)pyrido[3,4-d]pyrimidine-2,8-diamine]
14 | 2 | CCOc1cc(-c2nncn2C)ccc1Nc1ncc2ccnc(NCC(C)(C)OC)c2n1 [Example 188]
15 | 12 | COc1cc(C(=O)N2CC(OC)C2)ccc1Nc1cc2c(-c3cnn(C)c3C)cccc2cn1 [Example 13, (4-((5-(1,5-dimethyl-1H-pyrazol-4-yl)isoquinolin-3-yl)amino)-3-methoxyphenyl)(3-methoxyazetidin-1-yl)methanone]
16 | 4 | COc1cc(-c2nncn2C)ccc1Nc1ncc2c(C)cnc(NCC3(C)COC3)c2n1 [Example 155, N^2-(2-methoxy-4-(4-methyl-4H-1,2,4-triazol-3-yl)phenyl)-5-methyl-N^8-((3-methyloxetan-3-yl)methyl)pyrido[3,4-d]pyrimidine-2,8-diamine]
17 | 4 | COc1cc(-c2cnn(C)c2)ccc1Nc1ncc2ccnc(NCC(C)(C)CO)c2n1 [Example 74, 3-((2-((2-methoxy-4-(1-methyl-1H-pyrazol-4-yl)phenyl)amino)pyrido[3,4-d]pyrimidin-8-yl)amino)-2,2-dimethylpropan-1-ol]
